The test system of this test is leukemia cells. The experiment in a line: Absolute leukemia cell number quantification by flow cytometry in PBMCs from patients with CLL. Type of test: cell-based, human. The settings on record: 0 - 400 nM, 24 hours; PBMCs from patients with CLL (n = 13); dose-dependent; Figure 1A. The procedure:
To evaluate absolute cell numbers, an equal volume of PKH26 reference microbeads (Sigma-Aldrich) was added to each sample after staining for immune subset identification. Microbeads (5x10^3) were acquired by flow cytometry and absolute numbers of each immune population within the sample were calculated. Normalized percentage values were calculated considering the control (DMSO)-treated cells as 100%.
The in vitro cytotoxic activity of EC-7072 against primary CLL cells was assessed by: • (i) incubating PBMCs isolated from patients with CLL (n = 13) following treatment with increasing concentrations of EC-7072 (0 - 400 nM) for 24 hours. Numbers of leukemia cells were evaluated by flow cytometry and normalized to their respective control (DMSO) condition for each individual patient to obtain percentage of leukemia cells (Figure 1A); • (ii) incubating PBMCs from patients with CLL (n = 10) with or without EC-7072 (100-400 nM) for 24 hours. Viability of leukemia cells was determined by cytofluorometric assessment of DiOC6(3)/PI staining and normalized to their respective control condition to obtain percentage viability (Figure 1B); • (iii) incubating PBMCs from patients with CLL (n = 10) with increasing concentrations of EC-7072 (0 - 400 nM) for 24 hours. […]
(In general: In flow cytometry, cells or beads pass a laser one at a time.)

Our source for the leukemia cell numbers values is patent EP3797781A1, “USE OF EC-7072 AND SYNERGIC COMPOSITIONS THEREOF IN TREATMENT OF CHRONIC LYMPHOCYTIC LEUKEMIA” (priority 2019, dated 2021).

As to `CO[C@@H]([C@@H]1Cc2cc3cc(O[C@H]4C[C@@H](O[C@H]5C[C@@H](O)[C@H](O)[C@@H](C)O5)[C@H](O)[C@@H](C)O4)c(C)c(O)c3c(O)c2C(=O)[C@H]1O[C@H]1C[C@@H](O[C@H]2C[C@@H](O[C@H]3C[C@](C)(O)[C@H](O)[C@@H](C)O3)[C@@H](O)[C@@H](C)O2)[C@H](O)[C@@H](C)O1)[C@@H](O)C(C)=O` [EC-7072, mithramycin SK], the leukemia cell numbers result is “significantly decreased”.
